Results on 14 molecules are retold here after patent US11028090B2 (Dong Wha Pharm. Co., Ltd., priority 2017, dated 2021).

This assay deals with BRD4 (BD1+BD2) bromodomain (Homo sapiens (Human), UniProt O60885). The assay can be described thus: BRD4 binding inhibition (AlphaScreen, GST-BRD4 vs tetraacetylated histone H4 peptide). The procedure:
A mixture comprising 100 nM GST-BRD4 (BD1+BD2) and 100 nM biotinylated acetyl-histone H4 (Lys5,8,12,16) peptide was prepared in assay buffer (50 mM HEPES pH 7.4; 25 mM NaCl; 0.05% Tween 20; 0.1% bovine serum albumin (BSA); 10 mM dithiothreitol (DTT)). After adding 6 μl of the mixture to the diluent, 6 μl of the pre-mixed AlphaLISA Glutathione Acceptor Beads and AlphaScreen Streptavidin Donor Beads (PerkinElmer, 10 μg/ml in assay buffer, respectively) was added thereto. The samples were incubated in the dark at room temperature for 30 minutes (shaking at 300 rpm). Then, the signals were measured with PerkinElmer Envision HTS Multilabel Reader using an alpha screen protocol of PerkinElmer. Each plate contained the negative control in which biotinylated acetyl-histone H4 peptide and GST-BRD4 (BD1+BD2) were replaced by assay buffer. In the case of using the software GraphPad Prism for calculation, the negative control point was input as a low standard value. The positive control (probe molecule l-BET762 containing protein/peptide mixture) proceeded to pipetting.
(In general: Alpha assays give light when donor and acceptor beads are brought close together.)

[1] abbreviates: GST-BRD4 (BD1+BD2) / biotinylated acetyl-histone H4 (Lys5,8,12,16) peptide, read-out: IC50, BRD4 binding inhibition.
The mark [2] stands for this setting: GST-BRD4 (BD1+BD2) vs biotinylated acetyl-histone H4 peptide, AlphaScreen, read-out: BRD4 IC50.

Like-named read-outs stand apart in the source and are kept apart here.

For orientation: IC50 means the concentration at which inhibition is half-maximal. Turning to `COCCOc1ccc2c(c1)nc(NCCCCNC(=O)[C@@H](N)C(C)C)c1nnc(C)n12` (stereo in doubt) [Example 397, 2-amino-N-{4-[7-(2-methoxy-ethoxy)-1-methyl-[1,2,4]triazolo[4,3-a]quinoxaline-4-ylamino]-butyl}-3-methyl-butyramide], the half-inhibitory concentration (IC50) by setting is: under setting [1], no more than 0.05 µM; under setting [2], 0.029 µM. `Cc1nnc2c(NCCCCNC(=O)[C@H](O)C(C)C)nc3ccccc3n12` [Example 9, 2-(R)-hydroxy-N-[4-(1-methyl-[1,2,4]triazolo[4,3-a]quinoxaline-4-ylamino)-butyl]-3-methyl-butyramide]: the IC50 was no more than 0.05 µM under setting [1] and 0.04 µM under setting [2].

On to `Cc1cccc(C)c1C(=O)NCCCCNc1nc2ccccc2n2c(C)nnc12` [Example 13, 2,6-dimethyl-N-[4-(1-methyl-[1,2,4]triazolo[4,3-a]quinoxaline-4-ylamino)-butyl]-benzamide], for which the IC50 under setting [2] came out at 0.057 µM. Regarding `Cc1nnc2c(NCCCCNC(=O)c3ccc(Cl)cc3)nc3ccccc3n12` [Example 14, 4-chloro-N-[4-(1-methyl-[1,2,4]triazolo[4,3-a]quinoxaline-4-ylamino)-butyl]-benzamide], the IC50 under setting [1] was no more than 0.05 µM and the half-inhibitory concentration (IC50) under setting [2] came to 0.041 µM. `Cc1nnc2c(NCCCCNC(=O)c3cccc(Cl)c3)nc3ccccc3n12` [Example 15, 3-chloro-N-[4-(1-methyl-[1,2,4]triazolo[4,3-a]quinoxaline-4-ylamino)-butyl]-benzamide]: the IC50 by setting is: under setting [1], no more than 0.05 µM; under setting [2], 0.027 µM.

On to `Cc1nnc2c(NCCCCNC(=O)c3ccc(Cl)c(Cl)c3)nc3ccccc3n12` [Example 16, 3,4-dichloro-N-[4-(1-methyl-[1,2,4]triazolo[4,3-a]quinoxaline-4-ylamino)-butyl]-benzamide], for which the IC50 was no more than 0.05 µM under setting [1] and 0.044 µM under setting [2].

Regarding `Cc1nnc2c(NCCCCNC(=O)c3cccc(Cl)c3Cl)nc3ccccc3n12` [Example 17], the half-inhibitory concentration (IC50) under setting [2] turned out to be 0.051 µM. Turning to `Cc1nnc2c(NCCCCNC(=O)c3ccc(Cl)nc3Cl)nc3ccccc3n12` [Example 19, 2,6-dichloro-N-[4-(1-methyl-[1,2,4]triazolo[4,3-a]quinoxaline-4-ylamino)-butyl]-nicotinamide], the IC50 by setting is: under setting [1], no more than 0.05 µM; under setting [2], 0.036 µM. Turning to `Cc1nnc2c(NCCCCNC(=O)c3ccc(Cl)nc3)nc3ccccc3n12` [Example 20, 6-chloro-N-[4-(1-methyl-[1,2,4]triazolo[4,3-a]quinoxaline-4-ylamino)-butyl]-nicotinamide], the half-maximal inhibitory concentration (IC50) is, setting by setting: under setting [1], no more than 0.05 µM; under setting [2], 0.043 µM. With `Cc1ccc(C(=O)NCCCCNc2nc3ccccc3n3c(C)nnc23)c(Cl)n1` [Example 21, 2-chloro-6-methyl-N-[4-(1-methyl-[1,2,4]triazolo[4,3-a]quinoxaline-4-ylamino)-butyl]-nicotinamide], under setting [2], the half-inhibitory concentration (IC50) came out at 0.057 µM. Still for that read-out and setting: under `Cc1nnc2c(NCCCCNC(=O)NC(C)(C)C)nc3ccccc3n12` [Example 22, 1-tert-butyl-3-[4-(1-methyl-[1,2,4]triazolo[4,3-a]quinoxaline-4-ylamino)-butyl]-urea] stands 0.081 µM. On to `Cc1nnc2c(NCCCCNC(=O)Nc3cccc(F)c3)nc3ccccc3n12` [Example 24, 1-(3-fluoro-phenyl)-3-[4-(1-methyl-[1,2,4]triazolo[4,3-a]quinoxaline-4-ylamino)-butyl]-urea], for which the concentration for half-maximal inhibition (IC50) under setting [2] is 0.067 µM. Turning to `Cc1nnc2c(NCCCCNC(=O)OCc3ccccc3)nc3ccccc3n12` [Example 25, [4-(1-methyl-[1,2,4]triazolo[4,3-a]quinoxaline-4-ylamino)-butyl]-carbamic acid benzylester], under setting [2], the IC50 is 0.055 µM.

As to `Cc1nnc2c(NCCCCNC(=O)C(C)(C)C)nc3cc(Cl)c(Cl)cc3n12` [Example 28, N-[4-(7,8-dichloro-1-methyl-[1,2,4]triazolo[4,3-a]quinoxaline-4-ylamino)-butyl]-2,2-dimethyl-propionamide], the IC50 under setting [2] turned out to be 0.096 µM.
